According to ChEMBL document CHEMBL1201862, “PubChem BioAssay data set” (2004):
Activity calls are given as the source filed them.

How the values were obtained:
[1] = molecular target: T1, High affinity choline transporter 1 (Homo sapiens, UniProt Q9GZV3); test: human choline transporter blockers, potency – cell-based, 5-point CRC, membrane potential dye, dose response (AID 504840); type: functional
T1 sequence (Q9GZV3 whole entry): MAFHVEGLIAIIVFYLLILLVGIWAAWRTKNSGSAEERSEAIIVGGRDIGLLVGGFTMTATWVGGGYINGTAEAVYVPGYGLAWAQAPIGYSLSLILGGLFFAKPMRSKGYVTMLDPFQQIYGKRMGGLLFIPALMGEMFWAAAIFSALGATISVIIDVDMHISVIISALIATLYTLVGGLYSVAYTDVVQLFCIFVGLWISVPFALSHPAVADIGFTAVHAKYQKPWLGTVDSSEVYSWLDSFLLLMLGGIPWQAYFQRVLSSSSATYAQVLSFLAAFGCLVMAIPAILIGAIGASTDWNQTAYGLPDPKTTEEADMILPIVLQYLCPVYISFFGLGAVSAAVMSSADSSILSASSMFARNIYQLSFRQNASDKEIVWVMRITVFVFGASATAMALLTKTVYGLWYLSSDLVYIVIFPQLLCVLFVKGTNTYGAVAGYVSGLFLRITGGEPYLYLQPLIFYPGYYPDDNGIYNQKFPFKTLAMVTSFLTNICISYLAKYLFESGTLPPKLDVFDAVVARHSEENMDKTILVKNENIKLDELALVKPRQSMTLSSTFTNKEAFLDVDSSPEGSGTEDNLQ

[2] = molecular target: T2, Mannose-6-phosphate isomerase (Homo sapiens, UniProt P34949); test: phosphomannose isomerase inhibition – biochemical, fluorescence intensity, confirmation (AID 1535)
T2 sequence (P34949 whole entry): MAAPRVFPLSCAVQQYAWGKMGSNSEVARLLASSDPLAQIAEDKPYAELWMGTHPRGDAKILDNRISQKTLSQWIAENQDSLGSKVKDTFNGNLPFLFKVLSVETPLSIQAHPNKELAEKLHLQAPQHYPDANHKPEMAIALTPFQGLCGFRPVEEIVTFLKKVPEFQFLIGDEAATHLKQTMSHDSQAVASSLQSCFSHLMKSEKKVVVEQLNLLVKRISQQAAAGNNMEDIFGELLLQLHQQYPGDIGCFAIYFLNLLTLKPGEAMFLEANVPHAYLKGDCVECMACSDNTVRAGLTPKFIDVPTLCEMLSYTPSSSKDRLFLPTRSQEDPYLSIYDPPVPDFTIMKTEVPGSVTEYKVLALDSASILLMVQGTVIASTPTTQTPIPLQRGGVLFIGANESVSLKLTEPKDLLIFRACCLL

Phosphomannomutase 2 = molecular target: T3, Phosphomannomutase 2 (Homo sapiens, UniProt O15305); test: Counter screen SAR assay for PMM2 inhibitors via a fluorescence intensity assay. [Related pubchem assays (depositor defined):AID1545, AID1574]
T3 sequence (O15305 whole entry): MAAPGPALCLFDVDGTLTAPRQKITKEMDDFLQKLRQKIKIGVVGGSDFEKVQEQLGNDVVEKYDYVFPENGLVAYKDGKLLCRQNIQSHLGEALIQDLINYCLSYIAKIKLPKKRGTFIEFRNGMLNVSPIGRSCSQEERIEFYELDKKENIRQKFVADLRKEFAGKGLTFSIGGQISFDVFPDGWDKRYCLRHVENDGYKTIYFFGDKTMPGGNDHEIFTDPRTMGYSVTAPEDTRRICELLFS

[3] = Luminescence Cell-Based Dose Response to Identify Activators of 5'UTR Stem-Loop Driven Prion Protein mRNA Translation in H4-C Neuroglioblastoma Cells. [Related pubchem assays: 1829 (Project Summary), 1814 (Primary HTS)]; type: functional
[4] = Luminescence Cell-Based Dose Response HTS to Identify Activators of Luciferase Translation or Activity in H4 […] Cells. [Related pubchem assays: 1829 (Project Summary), 1814 (Primary HTS)]; type: functional
H4 = test: Luminescence Cell-Based Dose Response HTS to Identify Activators of 5'UTR Stem-Loop Driven Prion Protein mRNA Translation in H4 Neuroglioblastoma Cells. [Related pubchem assays: 1829 (Project Summary), 1814 (Primary HTS)]; type: functional; conditions: Homo sapiens
[5] = Luminescence Cell-Based Dose Response to Identify Activators of Luciferase Translation or Activity in H4-C Neuroglioblastoma Cells. [Related pubchem assays: 1829 (Project Summary), 1814 (Primary HTS)]; type: functional
[6] = Luminescence Cell-Based Dose Confirmation to Identify Activators of 5'UTR Stem-Loop Driven Alpha-Synuclein mRNA Translation in H4 Neuroglioblastoma Cells. [Related pubchem assays: 1829 (Project Summary), 1814 (Primary HTS)]; type: functional
HeLa = test: viability loss in HeLa cells – cell-based, 24 h, cherry-picked samples, cytotoxicity control, dose response (AID 504726); type: functional; conditions: Homo sapiens;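 also: potency for cytotoxicity as loss of luminescence signal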
Bcl-2-like protein 10 = molecular target: T4, Bcl-2-like protein 10 (Homo sapiens, UniProt Q9HD36); test: Bcl-B/TR3 peptide binding disruption – biochemical, fluorescence polarization, FITC-TR3 peptide, selectivity assay for Bfl-1 inhibitor project, primary screen (AID 748);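 also: fluorescence polarization from a fluorescein-labelled TR3 peptide binding purified Bcl-B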
T4 sequence (Q9HD36 whole entry): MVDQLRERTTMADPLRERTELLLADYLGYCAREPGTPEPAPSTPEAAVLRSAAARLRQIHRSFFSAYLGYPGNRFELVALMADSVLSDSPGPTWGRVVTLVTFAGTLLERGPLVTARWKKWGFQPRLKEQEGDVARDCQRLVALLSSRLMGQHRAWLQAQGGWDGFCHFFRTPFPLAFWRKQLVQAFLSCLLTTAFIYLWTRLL

[7] = A cytotoxicity screen of small molecule inhibitors of the PhoP region in Salmonella typhi identified in the primary screen. [Related pubchem assays: 1850, 1864, 1985 ]; type: functional
Troponin, cardiac muscle = Troponin, cardiac muscle (Homo sapiens, UniProt P19429+P45379+P63316); test: Fluorescence-based biochemical high throughput dose response assay for activators of the calcium sensitivity of cardiac Regulated Thin Filaments (RTF). [Related pubchem assays (depositor defined):AID493008, AID493018, AID504382, AID504383]; type: protein-complex assay
[8] = Luminescence Cell-Based Dose Confirmation HTS to Identify Activators of 5'UTR Stem-Loop Driven Alpha-Synuclein mRNA Translation in H4 Neuroglioblastoma Cells. [Related pubchem assays: 1829 (Project Summary), 1814 (Primary HTS)]; type: functional
[9] = molecular target: T5, Carboxy-terminal domain RNA polymerase II polypeptide A small phosphatase 1 (Homo sapiens, UniProt Q9GZU7); test: CTDSP1 inhibitors, concentration-response, biochemical, absorbance readout, ultra-high-throughput screen actives (AID 540297); type: functional
T5 sequence (Q9GZU7 whole entry): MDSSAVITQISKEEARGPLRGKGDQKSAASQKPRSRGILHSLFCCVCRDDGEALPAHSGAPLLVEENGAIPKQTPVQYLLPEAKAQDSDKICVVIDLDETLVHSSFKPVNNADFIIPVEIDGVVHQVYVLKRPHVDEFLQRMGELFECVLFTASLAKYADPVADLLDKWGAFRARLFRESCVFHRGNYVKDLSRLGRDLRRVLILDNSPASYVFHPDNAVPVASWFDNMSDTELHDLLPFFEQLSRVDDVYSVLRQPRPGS

Cytochrome P450 3A4 [10] = molecular target: T6, Cytochrome P450 3A4 (Homo sapiens, UniProt P08684); conditions: Potency
Large T antigen = Large T antigen (Simian virus 40, UniProt P03070); type: functional, Betapolyomavirus macacae;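 also: Confirmatory-stage PubChem screen for compounds that inhibit SV40 T antigen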
Cytochrome P450 2D6 = Cytochrome P450 2D6 (Homo sapiens, UniProt P10635);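 also: CYP2D6 member of a cytochrome P450 panel assay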
Cytochrome P450 1A2 = molecular target: T7, Cytochrome P450 1A2 (Homo sapiens, UniProt P05177);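 also: PubChem cytochrome P450 panel assay, CYP1A2 panel member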
T7 sequence (P05177 whole entry): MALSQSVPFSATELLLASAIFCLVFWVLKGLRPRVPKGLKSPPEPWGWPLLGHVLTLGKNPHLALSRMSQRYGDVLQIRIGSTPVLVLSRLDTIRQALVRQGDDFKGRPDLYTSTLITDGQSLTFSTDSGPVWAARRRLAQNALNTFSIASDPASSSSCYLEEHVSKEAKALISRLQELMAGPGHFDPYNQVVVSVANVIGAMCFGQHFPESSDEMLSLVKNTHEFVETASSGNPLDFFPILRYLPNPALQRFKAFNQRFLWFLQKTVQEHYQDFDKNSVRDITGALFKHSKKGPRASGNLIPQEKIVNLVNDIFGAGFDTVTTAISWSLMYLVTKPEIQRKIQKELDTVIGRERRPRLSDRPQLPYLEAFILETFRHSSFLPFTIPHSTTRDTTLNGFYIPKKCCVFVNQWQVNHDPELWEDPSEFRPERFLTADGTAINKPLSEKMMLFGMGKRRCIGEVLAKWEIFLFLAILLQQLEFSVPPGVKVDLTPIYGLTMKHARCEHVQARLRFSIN

Cytochrome P450 3A4 [11] = molecular target: T6, Cytochrome P450 3A4
Estrogen receptor beta [12] = molecular target: T8, Estrogen receptor beta (Homo sapiens, UniProt Q92731);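 also: recombinant ER-beta bound to coactivator SRC1 peptide in presence of estradiol agonist; inhibitors block coactivator peptide binding and lower the FRET signal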
Estrogen receptor beta [13] = molecular target: T8, Estrogen receptor beta; test: blockers of SRC-3 recruitment to ERβ – biochemical, ELISA, streptavidin-HRP readout, orthogonal assay, confirmation (AID 1060)
[14] = viability loss in HeLa cells – cytotoxicity control for MgcRacGAP inhibitor project, dose response (AID 624300); type: functional
[15] = molecular target: T9, Rac GTPase-activating protein 1 (Homo sapiens, UniProt Q9H0H5); test: blockers of MgcRacGAP-driven Rac1 GTP hydrolysis – biochemical, ADP Hunter fluorescence, primary and confirmatory, confirmation (AID 624330); type: functional
T9 sequence (Q9H0H5 whole entry): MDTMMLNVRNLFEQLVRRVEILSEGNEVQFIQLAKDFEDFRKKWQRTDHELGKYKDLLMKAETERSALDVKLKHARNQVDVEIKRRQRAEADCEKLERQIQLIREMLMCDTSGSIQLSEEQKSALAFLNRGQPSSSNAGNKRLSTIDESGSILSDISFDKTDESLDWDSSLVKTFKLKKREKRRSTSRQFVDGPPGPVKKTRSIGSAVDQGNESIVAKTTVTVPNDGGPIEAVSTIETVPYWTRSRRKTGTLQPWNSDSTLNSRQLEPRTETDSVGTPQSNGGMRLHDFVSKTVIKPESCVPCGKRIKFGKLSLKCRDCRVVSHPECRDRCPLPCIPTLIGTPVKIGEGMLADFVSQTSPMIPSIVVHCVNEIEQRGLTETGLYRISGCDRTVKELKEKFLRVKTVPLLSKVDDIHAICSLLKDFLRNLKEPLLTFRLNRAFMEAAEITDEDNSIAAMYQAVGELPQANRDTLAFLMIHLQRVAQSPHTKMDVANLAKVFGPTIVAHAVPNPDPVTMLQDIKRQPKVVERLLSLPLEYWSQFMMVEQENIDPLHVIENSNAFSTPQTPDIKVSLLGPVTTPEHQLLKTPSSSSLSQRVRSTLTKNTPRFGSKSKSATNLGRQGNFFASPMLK

T6 sequence (P08684 whole entry): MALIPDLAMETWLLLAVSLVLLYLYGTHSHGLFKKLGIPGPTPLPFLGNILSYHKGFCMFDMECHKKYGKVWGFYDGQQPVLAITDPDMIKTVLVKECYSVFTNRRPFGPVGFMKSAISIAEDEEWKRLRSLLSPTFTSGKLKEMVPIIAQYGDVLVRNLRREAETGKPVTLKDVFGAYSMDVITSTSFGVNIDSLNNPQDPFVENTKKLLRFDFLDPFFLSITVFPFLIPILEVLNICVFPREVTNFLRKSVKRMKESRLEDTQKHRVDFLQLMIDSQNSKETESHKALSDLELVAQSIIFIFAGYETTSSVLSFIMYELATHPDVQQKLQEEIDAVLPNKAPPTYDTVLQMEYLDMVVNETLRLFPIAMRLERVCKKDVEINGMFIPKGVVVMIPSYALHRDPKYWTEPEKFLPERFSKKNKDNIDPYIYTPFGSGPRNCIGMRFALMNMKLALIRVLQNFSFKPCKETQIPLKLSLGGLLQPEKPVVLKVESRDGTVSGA
T8 sequence (Q92731 whole entry): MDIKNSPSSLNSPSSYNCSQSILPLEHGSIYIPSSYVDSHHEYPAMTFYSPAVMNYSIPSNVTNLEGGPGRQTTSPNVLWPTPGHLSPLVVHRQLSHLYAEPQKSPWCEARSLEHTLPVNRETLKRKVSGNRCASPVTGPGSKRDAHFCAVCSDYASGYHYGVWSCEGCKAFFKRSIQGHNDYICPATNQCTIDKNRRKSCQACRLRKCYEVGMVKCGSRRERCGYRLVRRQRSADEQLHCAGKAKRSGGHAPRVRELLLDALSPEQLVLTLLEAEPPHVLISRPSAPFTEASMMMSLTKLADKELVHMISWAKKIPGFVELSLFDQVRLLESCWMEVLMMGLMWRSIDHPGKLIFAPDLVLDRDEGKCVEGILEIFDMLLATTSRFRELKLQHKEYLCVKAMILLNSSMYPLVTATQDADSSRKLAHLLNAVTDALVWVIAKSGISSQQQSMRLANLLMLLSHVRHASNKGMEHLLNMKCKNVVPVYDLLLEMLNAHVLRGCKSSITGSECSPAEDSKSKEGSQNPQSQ
Cytochrome P450 2D6, sequence (P10635 whole entry): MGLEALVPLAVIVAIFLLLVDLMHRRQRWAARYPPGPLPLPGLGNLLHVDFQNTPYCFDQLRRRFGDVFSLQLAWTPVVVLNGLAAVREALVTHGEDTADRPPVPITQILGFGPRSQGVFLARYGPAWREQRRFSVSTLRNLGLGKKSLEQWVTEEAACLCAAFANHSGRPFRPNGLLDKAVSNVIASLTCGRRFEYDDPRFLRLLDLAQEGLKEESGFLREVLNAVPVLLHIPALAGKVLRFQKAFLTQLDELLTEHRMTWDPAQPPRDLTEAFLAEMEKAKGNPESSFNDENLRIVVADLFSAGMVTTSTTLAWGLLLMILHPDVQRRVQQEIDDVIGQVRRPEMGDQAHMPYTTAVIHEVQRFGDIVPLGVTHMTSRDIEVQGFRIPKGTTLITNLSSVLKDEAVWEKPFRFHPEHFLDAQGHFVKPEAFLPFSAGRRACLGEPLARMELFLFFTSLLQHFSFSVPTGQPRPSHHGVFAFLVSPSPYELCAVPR
Large T antigen, sequence (P03070 whole entry): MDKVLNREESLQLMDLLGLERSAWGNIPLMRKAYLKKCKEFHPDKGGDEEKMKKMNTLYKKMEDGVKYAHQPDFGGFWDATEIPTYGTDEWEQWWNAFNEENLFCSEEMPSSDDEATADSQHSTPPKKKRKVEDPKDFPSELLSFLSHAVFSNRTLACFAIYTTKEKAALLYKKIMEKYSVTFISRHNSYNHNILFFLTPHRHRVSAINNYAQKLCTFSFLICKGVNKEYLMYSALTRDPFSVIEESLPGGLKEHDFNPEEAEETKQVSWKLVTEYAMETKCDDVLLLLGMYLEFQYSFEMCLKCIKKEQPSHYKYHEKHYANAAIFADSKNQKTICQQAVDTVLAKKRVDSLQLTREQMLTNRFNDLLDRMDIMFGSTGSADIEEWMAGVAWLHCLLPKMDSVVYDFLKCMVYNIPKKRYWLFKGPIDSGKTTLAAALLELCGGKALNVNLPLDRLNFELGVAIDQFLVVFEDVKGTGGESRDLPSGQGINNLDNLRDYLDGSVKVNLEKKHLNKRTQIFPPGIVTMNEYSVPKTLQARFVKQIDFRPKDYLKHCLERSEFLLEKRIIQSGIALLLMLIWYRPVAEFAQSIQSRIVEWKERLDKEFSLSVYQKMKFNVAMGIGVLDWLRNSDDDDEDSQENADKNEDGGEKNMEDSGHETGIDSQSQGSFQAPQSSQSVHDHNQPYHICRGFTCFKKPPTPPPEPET

CCCCN(CCCC)CCNC(=O)c1cn(CC)c2ccc(S(=O)(=O)N(C)C3CCCCC3)cc2c1=O
IC50 [1]: 15.8 µM (active)

Cc1cc2n(n1)SC(Nc1ccc(F)cc1)N2 (stereo unspecified)
IC50 [2]: > 50 µM (inactive) | IC50 (Phosphomannomutase 2): > 100 µM (inactive)

O=C(NCc1ccccc1)c1cccc(COc2ccc(Cl)cc2)c1
EC50 [3]: > 12 µM (not active) | EC50 [4]: < 0.1 µM (active) | EC50 (H4): > 120 µM (not active) | EC50 [5]: > 12 µM (not active) | EC50 [6]: 0.261 µM (active)

Cc1cnc(/N=c2\ssnc2Cl)cn1
IC50 [2]: > 100 µM (inactive)

CS(=O)(=O)c1ccc2nc(-n3sc4ccccc4c3=O)sc2c1
IC50 [2]: > 50 µM (inactive) | IC50 (Phosphomannomutase 2): > 100 µM (inactive)

CCN(Cc1ccccc1)S(=O)(=O)c1cc2nc(O)c(O)nc2cc1C
AC50 (HeLa): > 350 µM (inactive)

COCCN1CCn2c(nc3cc(NC(=O)NC4CCCCC4)ccc32)C1
IC50 (Bcl-2-like protein 10): > 12.5 µM (inactive)

COc1ccc(NC(=O)c2cnn3c(C(F)(F)F)cc(-c4ccco4)nc23)cc1OC
IC50 (Bcl-2-like protein 10): 66.8 µM (inactive)

CC(C)[C@H](NC(=O)c1ccccc1F)C(=O)NC1CCCCCCC1
AC50 (HeLa): 135 µM (active)

CC(C)N(C(S)=Nc1cccnc1)c1ccccc1
AC50 (HeLa): > 350 µM (inactive)

CCCCCC(=O)NNC(=S)NC(C)=O
EC50 [7]: > 50 µM (active)

O=C(NCc1nnc(SCC(=O)N2CCCCCC2)o1)c1ccco1
EC50 (Troponin, cardiac muscle): > 71.5 µM (inactive)

COc1ccccc1NC(=O)COC(=O)c1cnc(C)cn1
EC50 (Troponin, cardiac muscle): > 71.5 µM (inactive)

COc1ccccc1-c1nn2c(-c3ccco3)nnc2s1
EC50 [3]: 1.27 µM (active) | EC50 [8]: 0.129 µM (active) | EC50 [4]: < 0.1 µM (active) | EC50 (H4): 14.9 µM (active) | EC50 [5]: 0.431 µM (active) | EC50 [6]: 0.613 µM (active) | IC50 [9]: 12 µM (active)

CC(C)C1=CC2=CCC3[C@@](C)(CCC[C@@]3(C)C(=O)O)C2CC1 (stereo partly specified)
AC50 (Cytochrome P450 3A4 [10]): 39.8 µM (inconclusive)

CC(=O)NC(=NOCc1ccc(Br)cc1)c1nonc1NC(C)=O
AC50 (HeLa): > 350 µM (inactive)

O=c1c(O)c(-c2ccccc2)oc2cc(O)ccc12 [3,7-DIHYDROXYFLAVONE]
AC50 (Cytochrome P450 3A4 [10]): 39.8 µM (inconclusive)

CC(=O)NCCc1c[nH]c2ccc(O)cc12 [ACETYLSEROTONIN]
IC50 (Large T antigen): 21.7 µM (active) | AC50 (Cytochrome P450 3A4 [10]): 25.1 µM (inconclusive) | AC50 (Cytochrome P450 2D6): 15.8 µM (inconclusive) | AC50 (Cytochrome P450 1A2): 15.8 µM (inconclusive) | AC50 (Cytochrome P450 3A4 [11]): 7.94 µM (inconclusive)

CNS(=O)(=O)c1ccc(N/C=C2/C(=O)NC(=O)N(c3ccccc3)C2=O)cc1
EC50 (Troponin, cardiac muscle): > 71.5 µM (inactive)

CCc1ccc(NC2=NCCCS2)cc1
EC50 [7]: > 50 µM (active)

CCOc1ccc(C(=O)OCC(=O)NCc2ccco2)cc1OCC
IC50 (Bcl-2-like protein 10): > 100 µM (inactive) | IC50 (Estrogen receptor beta [12]): > 50 µM (not active) | IC50 (Estrogen receptor beta [13]): 0.113 µM (not active)

Cc1ccc(OCc2nnc(NC(=O)c3cccnc3)s2)cc1
EC50 [7]: > 50 µM (active)

CN(C)c1ccc(NC(=O)c2sc(SCC(=O)Nc3nccs3)nc2N)cc1
EC50 [3]: 1.28 µM (active) | EC50 [4]: < 0.1 µM (active) | EC50 [5]: 0.575 µM (active) | EC50 [6]: 0.236 µM (active) | CC50 [14]: 100 µM (active) | IC50 [15]: 107 µM (active)
